Measured values from PubChem BioAssay AID248 (DTP/NCI, 2004).
“And” between values parts separate entries of the source, which are not always exact repeats. Identical values can stand only once. Toxic doses and inconclusive results are not listed. No stated cut-off is given here; in the data, active means T/C of 150% or more; inactive means T/C below 125%.

Test system: L1210 leukemia ip in BDF1 mice, survival T/C
Experiment: NCI In Vivo Anticancer Drug Screen. Data for tumor model L1210 Leukemia (intraperitoneal) in B6D2F1 (BDF1) mice
Conditions: endpoint: mean survival time, higher = longer survival
Outline: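 Antitumor effect is assessed in tumor-bearing animals. Survival in the compound arm is compared with a vehicle-dosed control arm and expressed as their quotient.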

[1] = dose: 100.0 mg/kg/injection, schedule: Q01DX001 (ip), vehicle: Klucel (hydroxypropylcellulose) (HPC)
[2] = dose: 100.0 mg/kg/injection, schedule: Q01DX009 (ip), vehicle: Klucel (hydroxypropylcellulose) (HPC)
[3] = dose: 100.0 mg/kg/injection, schedule: Q04DX003 (ip), vehicle: Klucel (hydroxypropylcellulose) (HPC)
[4] = dose: 200.0 mg/kg/injection, schedule: Q01DX001 (ip), vehicle: Klucel (hydroxypropylcellulose) (HPC)
[5] = dose: 200.0 mg/kg/injection, schedule: Q01DX009 (ip), vehicle: Klucel (hydroxypropylcellulose) (HPC)
[6] = dose: 200.0 mg/kg/injection, schedule: Q04DX003 (ip), vehicle: Klucel (hydroxypropylcellulose) (HPC)
[7] = dose: 400.0 mg/kg/injection, schedule: Q01DX001 (ip), vehicle: Klucel (hydroxypropylcellulose) (HPC)
[8] = dose: 400.0 mg/kg/injection, schedule: Q01DX009 (ip), vehicle: Klucel (hydroxypropylcellulose) (HPC)
[9] = dose: 400.0 mg/kg/injection, schedule: Q04DX003 (ip), vehicle: Klucel (hydroxypropylcellulose) (HPC)
[10] = dose: 50.0 mg/kg/injection, schedule: Q01DX001 (ip), vehicle: carboxymethylcellulose (CMC)
[11] = dose: 100.0 mg/kg/injection, schedule: Q01DX001 (ip), vehicle: carboxymethylcellulose (CMC)
[12] = dose: 200.0 mg/kg/injection, schedule: Q01DX001 (ip), vehicle: carboxymethylcellulose (CMC)
[13] = dose: 400.0 mg/kg/injection, schedule: Q01DX001 (ip), vehicle: carboxymethylcellulose (CMC)
[14] = dose: 50.0 mg/kg/injection, schedule: Q01DX009 (ip), vehicle: saline with Tween-80
[15] = dose: 100.0 mg/kg/injection, schedule: Q01DX009 (ip), vehicle: saline with Tween-80
[16] = dose: 200.0 mg/kg/injection, schedule: Q01DX009 (ip), vehicle: saline with Tween-80
[17] = dose: 50.0 mg/kg/injection, schedule: Q04DX003 (ip), vehicle: Klucel (hydroxypropylcellulose) (HPC)
[18] = dose: 100.0 mg/kg/injection, schedule: Q04DX003 (ip), vehicle: saline with Tween-80
[19] = dose: 200.0 mg/kg/injection, schedule: Q04DX003 (ip), vehicle: saline with Tween-80
[20] = dose: 400.0 mg/kg/injection, schedule: Q04DX003 (ip), vehicle: saline with Tween-80
[21] = dose: 100.0 mg/kg/injection, schedule: Q01DX001 (ip), vehicle: saline with Tween-80
[22] = dose: 200.0 mg/kg/injection, schedule: Q01DX001 (ip), vehicle: saline with Tween-80

Measured: T/C

Cc1ccc([N+](=O)[O-])cc1NC(=O)N(C)Cc1ccc(Cl)cc1
inactive: [1] 90 % of control | [2] 89 % of control and 90 % of control | [3] 102 % of control | [4] 98 % of control | [5] 94 % of control and 97 % of control | [6] 98 % of control | [7] 93 % of control | [8] 93 % of control and 90 % of control | [9] 100 % of control and 122 % of control

Cc1ccc(S(=O)(=O)Oc2ccc([N+](=O)[O-])cc2[N+](=O)[O-])cc1
inactive: [10] 106 % of control | dose: 50.0 mg/kg/injection, schedule: Q01DX009 (ip), vehicle: other 100 % of control | [11] 114 % of control | dose: 100.0 mg/kg/injection, schedule: Q01DX009 (ip), vehicle: other 96 % of control | [3] 118 % of control | [12] 106 % of control | [6] 96 % of control | [13] 106 % of control

CC(C)(C)C(C)(O)C(=O)O (centres undefined)
inactive: [14] 93 % of control | [15] 97 % of control | [16] 93 % of control

COC(=O)C1C2C=CC(C2=C(C)C)C1C(=O)OC (centres undefined)
inactive: [17] 100 % of control | [1] 92 % of control | [3] 98 % of control | [4] 96 % of control | [6] 94 % of control | [7] 91 % of control

CC(Cl)CN(CC(C)Cl)C(=O)Oc1ccc([N+](=O)[O-])cc1 (centres undefined)
inactive: [2] 98 % of control | [5] 94 % of control | [8] 98 % of control

COc1nc(Cl)cc2c1ncn2C1OC(CO)C(O)C1O (centres undefined)
inactive: dose: 100.0 mg/kg/injection, schedule: Q01DX005 (ip), vehicle: saline 111 % of control | dose: 200.0 mg/kg/injection, schedule: Q01DX005 (ip), vehicle: saline 108 % of control

CCCCCCCCCCCCCCCCC(Oc1ccc(Cl)cc1Cl)C(=O)O (centres undefined)
inactive: [3] 102 % of control | [6] 98 % of control | [9] 101 % of control

CN(C)c1ccc(/C=C/c2ccc3ccccc3n2)c(F)c1
inactive: [3] 100 % of control | [6] 98 % of control | [9] 93 % of control

O=C1C=C(c2c(O)ccc3ccccc23)c2ccccc2C1=O
inactive: [10] 96 % of control | [11] 100 % of control | [12] 96 % of control | [13] 110 % of control

CCCCNC(=O)C(=O)c1ccccc1NC(C)=O
inactive: [2] 86 % of control | [5] 87 % of control | [8] 97 % of control

CCCCN=C(N)c1ccc(S(=O)(=O)N=C(N)N)cc1
inactive: dose: 100.0 mg/kg/injection, schedule: Q01DX001 (ip), vehicle: saline 97 % of control | dose: 200.0 mg/kg/injection, schedule: Q01DX001 (ip), vehicle: saline 101 % of control | dose: 400.0 mg/kg/injection, schedule: Q01DX001 (ip), vehicle: saline 97 % of control

O=c1[nH]c(-c2ccccc2)c(Br)c(=O)[nH]1
inactive: [18] 97 % of control | [19] 107 % of control | [20] 100 % of control

OCC(O)CSc1c(Cl)c(Cl)c(Cl)c(Cl)c1Cl (centres undefined)
inactive: [21] 98 % of control and 88 % of control | dose: 100.0 mg/kg/injection, schedule: Q04DX002 (ip), vehicle: saline with Tween-80 95 % of control and 101 % of control | [18] 92 % of control | [22] 93 % of control and 95 % of control | dose: 200.0 mg/kg/injection, schedule: Q04DX002 (ip), vehicle: saline with Tween-80 95 % of control and 96 % of control | [19] 99 % of control | dose: 400.0 mg/kg/injection, schedule: Q01DX001 (ip), vehicle: saline with Tween-80 95 % of control and 86 % of control | dose: 400.0 mg/kg/injection, schedule: Q04DX002 (ip), vehicle: saline with Tween-80 97 % of control and 108 % of control | [20] 94 % of control

CCCCCCCCC1CCC2C3CCC4CC(C(=O)O)C(C(=O)O)CC4(C)C3CCC12C (centres undefined)
inactive: [21] 86 % of control | [22] 87 % of control

CCCCC(CC)CO.[Ti] (centres undefined)
inactive: [18] 96 % of control | [19] 96 % of control

CC(=O)CC(=O)CC(O)(C(F)(F)F)C(F)(F)F
inactive: [15] 96 % of control

Cc1cccnc1Nc1ncccc1C
inactive: dose: 50.0 mg/kg/injection, schedule: Q01DX009 (ip), vehicle: saline 100 % of control | dose: 100.0 mg/kg/injection, schedule: Q01DX009 (ip), vehicle: saline 96 % of control | dose: 200.0 mg/kg/injection, schedule: Q01DX009 (ip), vehicle: saline 103 % of control

Cc1c2oc3c(C)c([N+](=O)[O-])cc(C(=O)NC4C(=O)NC(C(C)C)C(=O)N5CCCC5C(=O)N(C)CC(=O)N(C)C(C(C)C)C(=O)OC4C)c3nc-2c(C(=O)NC2C(=O)NC(C(C)C)C(=O)N3CCCC3C(=O)N(C)CC(=O)N(C)C(C(C)C)C(=O)OC2C)c(N)c1=O (centres undefined)
inactive: dose: 75.0 micrograms/kg/injection, schedule: Q01DX009 (ip), vehicle: saline + alcohol 110 % of control | dose: 100.0 micrograms/kg/injection, schedule: Q01DX009 (ip), vehicle: saline + alcohol 116 % of control | dose: 150.0 micrograms/kg/injection, schedule: Q01DX009 (ip), vehicle: saline + alcohol 111 % of control | dose: 300.0 micrograms/kg/injection, schedule: Q01DX009 (ip), vehicle: saline + alcohol 108 % of control | dose: 400.0 micrograms/kg/injection, schedule: Q01DX009 (ip), vehicle: saline + alcohol 96 % of control | dose: 400.0 micrograms/kg/injection, schedule: Q04DX003 (ip), vehicle: saline + alcohol 124 % of control | dose: 600.0 micrograms/kg/injection, schedule: Q04DX003 (ip), vehicle: saline + alcohol 119 % of control | dose: 800.0 micrograms/kg/injection, schedule: Q04DX003 (ip), vehicle: saline + alcohol 106 % of control | dose: 1200.0 micrograms/kg/injection, schedule: Q04DX003 (ip), vehicle: saline + alcohol 111 % of control

O=C(Nc1ncc(S(=O)(=O)c2ccc([N+](=O)[O-])cc2)s1)C(F)(F)F
inactive: [15] 94 % of control | [16] 99 % of control

CCCCCCCCCCCCCCCCCCN=C(Cl)Cl
inactive: [1] 88 % of control | [4] 96 % of control | [7] 98 % of control

CCCCCCCCCCCCCCCCCC(=O)OCCCCCCCCCCCCC
inactive: dose: 100.0 mg/kg/injection, schedule: Q01DX009 (ip), vehicle: saline sonified 88 % of control | [18] 100 % of control | dose: 200.0 mg/kg/injection, schedule: Q01DX009 (ip), vehicle: saline sonified 95 % of control | [19] 92 % of control | dose: 400.0 mg/kg/injection, schedule: Q01DX009 (ip), vehicle: saline sonified 91 % of control | [20] 86 % of control

Cc1nc(N)nc2c1CCC(=O)N2
inactive: [3] 100 % of control | [6] 89 % of control | [9] 94 % of control

N#C/C(=C1C=C/C(=N/O)C(Br)=C/1)c1ccccc1
inactive: [18] 96 % of control | [19] 100 % of control | [20] 98 % of control

CCCCNC(=O)N(C)Cc1ccccc1
inactive: dose: 100.0 mg/kg/injection, schedule: Q04DX002 (ip), vehicle: Klucel (hydroxypropylcellulose) (HPC) 105 % of control | dose: 200.0 mg/kg/injection, schedule: Q04DX002 (ip), vehicle: Klucel (hydroxypropylcellulose) (HPC) 97 % of control | dose: 400.0 mg/kg/injection, schedule: Q04DX002 (ip), vehicle: Klucel (hydroxypropylcellulose) (HPC) 112 % of control

Cc1ccc(/C=N\N=C\c2ccc(C)cc2)cc1
inactive: [15] 96 % of control | [16] 91 % of control

CC(C#N)(Cc1ccccc1)Nc1ccccc1 (centres undefined)
inactive: [14] 102 % of control | [15] 101 % of control | [16] 96 % of control

O=C(O)C1CCC(C(=O)O)c2ccccc21 (centres undefined)
inactive: dose: 12.5 mg/kg/injection, schedule: Q04DX003 (ip), vehicle: Klucel (hydroxypropylcellulose) (HPC) 91 % of control | dose: 25.0 mg/kg/injection, schedule: Q04DX003 (ip), vehicle: Klucel (hydroxypropylcellulose) (HPC) 96 % of control | [17] 102 % of control | [3] 93 % of control and 91 % of control | [6] 95 % of control | [9] 88 % of control and 91 % of control

Br/C=C(\Br)CBr
inactive: dose: 75.0 mg/kg/injection, schedule: Q01DX001 (sc), vehicle: olive oil, sesame oil, peanut oil 105 % of control | dose: 150.0 mg/kg/injection, schedule: Q01DX001 (sc), vehicle: olive oil, sesame oil, peanut oil 108 % of control
